Test results reported in patent US20140287036A1, “SOFT-GELATIN CAPSULE FORMULATION” (SUCAMPO AG, priority 2006, published 2014).

Legend:
Format in all cases: physicochemical
[1] = Stability of compound 1/MCT solution (60 μg/g) kept with gelatin piece at 40° C. for 21 days; details: MCT solution, percentage of theoretical amount (60 μg/g)
Protocol: One hundred (100) parts by weight of gelatin (type A, high bloom, SKW Biosystems #195F) and 35 parts by weight of a plasticizer shown in Table 2 were mixed in water and dried to give gelatin piece. Compound 1 was dissolved in medium chain fatty acid triglyceride (USP/NF grade) to give a liquid mixture comprising 60 μg/g of the compound. 0.5 g of the liquid mixture and 0.5 g of each gelatin piece were put together in a sealed container and kept at 40° C. for 21 days. Then, the concentration of compound 1 contained in the liquid mixture was determined in the same manner as Reference Example 1.

[2] = Stability of soft gelatin capsule of compound 1 at 40° C.; details: MCT fill 240 μg/g; for conc. (% of Initial) 40° C. 2 mo: 2 months; for conc. (% of Initial) 40° C. 3 mo: 3 months
Protocol: Sugar alcohol solution derived from corn starch in an amount shown in Table 3 was added in an appropriate amount of water, stirred and heated. Then, gelatin 100 parts by weight was added thereto to give gelatin solution. Compound 1 was dissolved in medium chain fatty acid triglyceride (USP/NF grade) to give a fill solution containing 240 μg/g of compound 1. The gelatin solution and the liquid mixture were loaded on capsule forming and filling machine to give capsule containing the fill solution therein, and the capsule was dried to give soft gelatin capsule.
The capsule was put in a sealed container and kept at 40° C. for 3 months. The concentration of compound 1 in the fill solution contained in the capsule was determined after 1, 2 and 3 months storage in the same manner as Reference Example 1.

[3] = Storage stability of compound 1 solution (240 μg/g) in a vehicle at 55° C., HPLC assay; details: percentage of theoretical amount (240 μg/g); for concentration of compound 1, day 10: 55° C., 10 days
Protocol: Compound 1 was dissolved in a vehicle shown in table 1 below to give 240 μg/g solution (sample). The precise concentration of compound 1 in the sample was determined by means of HPLC (day 0). Then, the sample was put in a hard grass container and kept at 55° C. for 10 days, and then the precise concentration of the compound 1 in the sample was determined by means of HPLC (day 10).
The determination of the concentration of the compound in the sample was carried out as follows. About 0.2 g of the sample was mixed with exactly 2 ml of internal standard solution and then with a dissolving agent shown in Table 1 to give 5 mL of sample solution. About 12 mg of the reference standard compound 1 was weighted precisely and added with acetonitrile to give exactly 100 ml solution. Exactly 0.8 ml of the solution was obtained and added with exactly 4 ml of the internal standard solution, and then added with the dissolving agent to give 10 ml of standard solution.
The fluorescent labeling agent was added to the respective solution, stirred and stood at room temperature. Then, respective solution in an amount that theoretically gives 3.6 ng of compound 1 was loaded on the column and analyzed under the condition as follows:
Column: 5 mm×25 cm stainless steel column packed with octadecylsilane treated silica gel for HPLC (5 μm)
Mobile phase: mixture of acetonitrile HPLC grade: methanol HPLC grade: ammonium acetate (0.05 mol/L)
Detector: spectrophotofluorometer

[4] = capsule shell gelatin 100 / sugar alcohol solution 35 parts by weight
[5] = capsule shell gelatin 100 / sugar alcohol solution 45 parts by weight
[6] = capsule shell gelatin 100 / sugar alcohol solution 55 parts by weight
[7] = vehicle polyethylene glycol 400

CCCCC(F)(F)[C@@]1(O)CC[C@H]2[C@@H](CC(=O)[C@@H]2CCCCCCC(=O)O)O1 [compound 1, 7-[(2R,4aR,5R,7aR)-2-(1,1-difluoropentyl)-2-hydroxy-6-oxooctahydrocyclopenta[b]pyran-5-yl]heptanoic acid]
concentration of compound 1 after storage ([1]; gelatin piece with glycerin plasticizer (water content 23%)): 86.8%
concentration of compound 1 after storage ([1]; gelatin piece with sugar alcohol solution derived from corn starch as plasticizer (water content 25%)): 92.0%
conc. (% of Initial) 40° C. 1 mo ([2]; capsule shell gelatin 100 / sugar alcohol solution 35 parts by weight, 1 month): 99.9%
conc. (% of Initial) 40° C. 2 mo [2, 4]: 100.3%
conc. (% of Initial) 40° C. 3 mo [2, 4]: 99.2%
conc. (% of Initial) 40° C. 2 mo [2, 5]: 100.5%
conc. (% of Initial) 40° C. 3 mo [2, 5]: 100.0%
conc. (% of Initial) 40° C. 2 mo [2, 6]: 99.3%
conc. (% of Initial) 40° C. 3 mo [2, 6]: 100.0%
concentration of compound 1, day 10 ([3]; vehicle glycerin): 78.0%
concentration of compound 1, day 0 ([3]; vehicle glycerin): 92.0%
concentration of compound 1, day 10 ([3]; vehicle hydrogenated maltose starch syrup): 24.4%
concentration of compound 1, day 10 [3, 7]: 90.1%
concentration of compound 1, day 0 [3, 7]: 98.2%
concentration of compound 1, day 10 ([3]; vehicle propylene glycol): 88.6%
concentration of compound 1, day 0 ([3]; vehicle propylene glycol): 97.8%
concentration of compound 1, day 10 ([3]; vehicle sugar alcohol solution derived from corn starch (Polysorb 85/70/00)): 26.2%
